# Source: patent publication US10690666B2, “Methods and compositions for modulating TH-GM cell function” (National University of Singapore, priority 2014, dated 2020)
# How the values were obtained:
# STAT5 [1] = experiment: IL-7-induced STAT5 activation (Tyr694 phosphorylation) in CD4+ T cells, immunoblotting; format: cell-based, mouse; settings: pre-incubated 1 h, IL-7 30 min
# Experimental: (§1) FIGS. […] depict inhibition of STAT5 activation suppresses TH-GM cell differentiation in vitro. CD4^+ T cells were pre-incubated with STAT5 inhibitor (Calbiochem) (FIG. 22A) or JAK3 inhibitor (FIG. 22B) at indicated concentrations or vehicle (−) for 1 h before stimulation with IL-7 for 30 min. Activation (Tyr694 phosphorylation) of STAT5 was determined by immunoblotting. CD4^+ T cells were pre-incubated with STAT5 inhibitor at indicated concentrations or vehicle (−) for 1 h before stimulation with IL-6 for 30 min. Activation (Tyr705 phosphorylation) of STAT3 was determined by immunoblotting (FIG. 22C). In FIG. 22D, CD4^+ T cells were pre-incubated with STAT5 inhibitor at indicated concentrations or vehicle (−) for 1 h before stimulation with IFN-γ for 30 min. Activation (Tyr701 phosphorylation) of STAT1 was determined by immunoblotting. In FIG. 22E, naïve CD4^+ T cells were isolated and activated under neutral condition or TH-GM cell-favoring condition with the addition of different concentrations of STAT5 inhibitor for 3 days. GM-CSF and IFN-γ expression was analyzed by intracellular cytokine staining and flow cytometry.
# (§2) The effect of disrupting STAT5 activation by chemical inhibitor was examined to explore possible methods of treating autoimmune neuroinflammation. The phosphorylation on the key tyrosine residue in SH2 domain is crucial for STAT5 activation and function. […]
# STAT3 = biological target: T1, STAT3 (Mus musculus, UniProt P42227); experiment: IL-6-induced STAT3 activation (Tyr705 phosphorylation) in CD4+ T cells, immunoblotting; format: cell-based; settings: 50 or 100 μM; IL-6 30 min
# T1 construct: endogenous in cells; host or cells: primary mouse CD4+ T cells (spleen and lymph nodes)
# T1 sequence (P42227 whole entry): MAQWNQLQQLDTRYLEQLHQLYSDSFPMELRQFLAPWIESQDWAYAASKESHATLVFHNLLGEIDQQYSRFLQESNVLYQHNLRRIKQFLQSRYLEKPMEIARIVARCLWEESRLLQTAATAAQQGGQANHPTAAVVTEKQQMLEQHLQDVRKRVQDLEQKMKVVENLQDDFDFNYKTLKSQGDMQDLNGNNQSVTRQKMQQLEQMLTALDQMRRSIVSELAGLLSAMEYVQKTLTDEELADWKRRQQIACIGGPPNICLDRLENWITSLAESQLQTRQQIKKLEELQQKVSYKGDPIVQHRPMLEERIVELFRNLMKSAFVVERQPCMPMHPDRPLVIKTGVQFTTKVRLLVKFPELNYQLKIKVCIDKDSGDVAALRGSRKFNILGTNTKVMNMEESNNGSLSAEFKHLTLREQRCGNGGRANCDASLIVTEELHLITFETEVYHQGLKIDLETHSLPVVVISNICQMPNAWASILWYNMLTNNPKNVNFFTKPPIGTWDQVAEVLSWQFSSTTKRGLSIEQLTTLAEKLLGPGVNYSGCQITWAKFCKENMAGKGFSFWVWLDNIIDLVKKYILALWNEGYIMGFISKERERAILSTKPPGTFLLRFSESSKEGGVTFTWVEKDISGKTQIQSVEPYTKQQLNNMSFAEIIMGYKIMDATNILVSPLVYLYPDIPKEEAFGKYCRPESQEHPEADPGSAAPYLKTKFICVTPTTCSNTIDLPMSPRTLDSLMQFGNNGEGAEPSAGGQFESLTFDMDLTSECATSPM
# Experimental: as §1, §2
# STAT1 = biological target: T2, STAT1 (Mus musculus, UniProt P42225); experiment: IFN-γ-induced STAT1 activation (Tyr701 phosphorylation) in CD4+ T cells, immunoblotting; format: cell-based; settings: 50 or 100 μM; IFN-γ 30 min
# T2 construct: endogenous in cells; host or cells: primary mouse CD4+ T cells (spleen and lymph nodes)
# T2 sequence (P42225 1-749): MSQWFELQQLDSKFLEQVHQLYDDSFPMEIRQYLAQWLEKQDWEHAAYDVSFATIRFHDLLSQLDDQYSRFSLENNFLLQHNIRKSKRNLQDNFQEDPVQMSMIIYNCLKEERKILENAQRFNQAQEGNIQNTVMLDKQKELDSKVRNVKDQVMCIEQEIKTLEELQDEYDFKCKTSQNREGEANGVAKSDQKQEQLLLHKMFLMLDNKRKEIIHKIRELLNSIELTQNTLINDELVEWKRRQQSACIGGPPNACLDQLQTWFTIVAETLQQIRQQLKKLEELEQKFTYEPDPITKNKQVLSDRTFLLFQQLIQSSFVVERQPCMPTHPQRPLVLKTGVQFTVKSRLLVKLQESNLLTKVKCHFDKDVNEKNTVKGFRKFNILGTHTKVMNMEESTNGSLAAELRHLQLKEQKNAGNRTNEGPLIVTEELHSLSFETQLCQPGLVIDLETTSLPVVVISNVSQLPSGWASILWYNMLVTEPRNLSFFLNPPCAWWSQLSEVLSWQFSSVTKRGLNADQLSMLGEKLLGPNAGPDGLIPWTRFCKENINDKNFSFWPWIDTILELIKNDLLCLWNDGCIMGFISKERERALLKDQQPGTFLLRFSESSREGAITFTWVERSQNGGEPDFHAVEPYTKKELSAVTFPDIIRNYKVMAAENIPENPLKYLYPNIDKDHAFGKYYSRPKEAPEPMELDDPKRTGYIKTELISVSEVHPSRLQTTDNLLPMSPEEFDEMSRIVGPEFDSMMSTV
# Experimental: as §1, §2
# naïve CD4+ T cells [2] = experiment: In vitro TH-GM (GM-CSF-expressing TH) differentiation from naïve CD4+ T cells; format: cell-based, mouse; settings: TH-GM cell-favoring condition, inhibitor 3 days
# Experimental: Naïve CD4^+ T cells were primed with plate-bound anti-CD3 and soluble anti-CD28 in the presence of a combination of various cytokines and neutralizing antibodies as indicated. GM-CSF, IL-17 and IFN-γ expression was analyzed by intracellular staining (FIG. 13A) or RT-PCR (FIG. 13B)
# GM-CSF and IFN-γ expression in naive CD4^+ T cells activated for 72 h with anti-CD3 alone or plus anti-CD28 (FIG. 14A). In FIG. 14B, sorted naïve CD4^+ T cells were stimulated with anti-CD3 and anti-CD28 in the presence of neutralizing antibodies against IL-12 and IFN-γ without or with the addition of IL-6. The frequencies of GM-CSF^+ and IL-17^+ cells were measured by intracellular staining (FIG. 14B). In FIG. 14C, naïve CD4^+ T cells from Stat3^+/+ and Stat3^−/− mice were polarized under conditions as indicated for 72 h. The frequencies of GM-CSF^+ and IL-17^+ cells were analyzed. In FIG. 14D, naïve CD4^+ T cells were activated with anti-CD3 and anti-CD28 in the presence of IL-2 or anti-IL-2. The frequencies of GM-CSF^+, IL-17^+ and IFN-γ^+ cells were analyzed.
# Naïve CD4^+ T cells were primed with plate-bound anti-CD3 and soluble anti-CD28 in the presence of various concentration of IL-7 as indicated. GM-CSF and IFN-γ expression was analyzed by intracellular staining (FIG. 15A) or ELISA (FIG. 15B). In FIGS. 15C and 15D, Stat5^+/+ and Stat5^−/− naïve CD4^+ T cells were activated with anti-CD3 and anti-CD28 in the presence IL-7 for 3 days. GM-CSF, IL-17 and IFN-γ expression was analyzed by intracellular cytokine staining (FIG. 15C). GM-CSF secretion was measured by ELISA (FIG. 15D).
# naïve CD4+ T cells [3] = experiment: In vitro TH1 differentiation; format: cell-based, mouse; settings: data not shown
# Experimental: CD4^+ T cells were obtained from spleens and lymph nodes by positive selection and magnetic separation (Miltenyi Biotech), followed by purification of naïve CD4^+ T cell population (CD4^+CD25^−CD62L^hiCD44^lo) sorted with FACS Aria. Naïve CD4^+ T cells were stimulated with plate-bound anti-CD3 (3 μg/ml; BD Pharmingen) and anti-CD28 (1 μg/ml; BD Pharmingen) in presence of different combinations of neutralizing antibodies and cytokines for 3˜4 days: for neutral conditions, no addition of any cytokine or neutralizing antibody; for TH1 conditions, IL-12 (10 ng/ml), and anti-IL-4 (10 μg/ml, BD Pharmingen); for TH17 conditions, hTGF-β (3 ng/ml), IL-6 (20 ng/ml), anti-IFN-γ (10 μg/ml, eBioscience), and anti-IL-4 (10 μg/ml); for an alternative TH17 conditions, IL-6 (20 ng/ml), IL-23 (10 ng/ml), IL-1β (10 ng/ml), anti-IFN-γ (10 μg/ml), and anti-IL-4 (10 μg/ml). For GM-CSF-expressing cell differentiation, naïve CD4^+ T cells were stimulated with plate-bound anti-CD3 (2 μg/ml) and soluble anti-D28 (1 μg/ml) with the addition of IL-7 and/or anti-IFN-γ (10 μg/ml) as indicated. All cytokines were obtained from R&D Systems. […] Cells were acquired on the LSR II (BD Biosciences) and analyzed with FlowJo software (Tree Star). […]
# naïve CD4+ T cells [4] = experiment: In vitro TH17 differentiation; format: cell-based, mouse; settings: data not shown
# Experimental: CD4^+ T cells were obtained from spleens and lymph nodes by positive selection and magnetic separation (Miltenyi Biotech), followed by purification of naïve CD4^+ T cell population (CD4^+CD25^−CD62L^hiCD44^lo) sorted with FACS Aria. Naïve CD4^+ T cells were stimulated with plate-bound anti-CD3 (3 μg/ml; BD Pharmingen) and anti-CD28 (1 μg/ml; BD Pharmingen) in presence of different combinations of neutralizing antibodies and cytokines for 3˜4 days: for neutral conditions, no addition of any cytokine or neutralizing antibody; for TH1 conditions, IL-12 (10 ng/ml), and anti-IL-4 (10 μg/ml, BD Pharmingen); for TH17 conditions, hTGF-β (3 ng/ml), IL-6 (20 ng/ml), anti-IFN-γ (10 μg/ml, eBioscience), and anti-IL-4 (10 μg/ml); for an alternative TH17 conditions, IL-6 (20 ng/ml), IL-23 (10 ng/ml), IL-1β (10 ng/ml), anti-IFN-γ (10 μg/ml), and anti-IL-4 (10 μg/ml). […] Cells were acquired on the LSR II (BD Biosciences) and analyzed with FlowJo software (Tree Star).
# Stat5 deletion (Cd4-cre; Stat5^f/−) mice was reported to develop peripheral lymphopenia, with a reduction of both CD4^+ and CD8^+ T cells (Yao et al., 2006). […] Furthermore, increased frequencies of IL-17^+ and IFN-γ^+ cells were detected among CD4^+ T cells in spleens of Stat5^−/− mice (FIG. 4C), which further support the idea that the resistance to EAE in Stat5^−/− mice is likely independent of TH1 and TH17 generation. […]
# EAE mice = experiment: EAE (MOG35-55/CFA) model; format: in vivo
# Experimental: (FIG. 23A) Clinical EAE scores of wild-type control mice (n=5) or administrated with STAT5 inhibitor (Calbiochem). Arrow indicates the treatment points. (FIG. 23B) Histology of spinal cords at day 18 of EAE mice receiving different treatments. (FIG. 23C) Intracellular staining and flow cytometry of CNS-infiltrating CD4^+ T cells at peak of disease. (FIG. 23D) Whole CNS was harvest for RNA extraction. GM-CSF mRNA expression was analyzed by RT-PCR. Data represent two independent experiments. *p<0.05.
# EAE induction procedures were modified from previous report^3. For active EAE induction, mice were immunized in two sites on the hind flanks with 300 μg MOG35-55 in 100 μl CFA containing 5 mg/ml heat-killed M. tuberculosis strain H37Ra (Difco) at day 0 and day 7. Pertussis toxin (List Bio Lab) was administrated intraperitoneally at the dosage of 500 ng per mouse at day 1 and day 8. For single MOG35-55/CFA immunization, the similar procedure was performed at day 0 and day 1 only. In an alternative active EAE induction, LPS (600 μg/ml in IFA, O111:B4 from Sigma) was used as adjuvant. […] Clinical symptoms were scored as follows: 0, no clinical sign; 1, loss of tail tone; 2, wobbly gait; 3, hind limb paralysis; 4, hind and fore limb paralysis; 5, death. […] For analysis of CNS-infiltrating cells, both spinal cord and brain were collected and minced from perfused mice, and mononuclear cells were isolated by gradient centrifuge with Percoll (GE Healthcare).
# To explore the therapeutic effect of targeting STAT5 activation in EAE disease, the commercial STAT5 inhibitor was administered to wild-type mice intraperitoneally every other day after disease onset. Development of paralysis was assessed by daily assignment of clinical scores.
# STAT5 [5] = settings: Muller et al., 2008; cited from earlier work
structure (smiles),measurement,setting,value
O=C(N/N=C/c1coc2ccccc2c1=O)c1cccnc1 [STAT5 inhibitor],inhibitory effect on STAT5 activation upon IL-7 stimulation,STAT5 [1]; 50 μM,about 50%
same,inhibitory effect on STAT5 activation upon IL-7 stimulation,"STAT5 [1]; FIG. 22A, 22B",low affinity and thus required a high concentration to fully block STAT5 activation
same,inhibitory effect on STAT3 activation,STAT3,minimal inhibitory effect
same,inhibitory effect on STAT1 activation,STAT1,minimal inhibitory effect
same,TH-GM differentiation,naïve CD4+ T cells [2],suppressed TH-GM differentiation in a dosage-dependent manner
same,TH1 differentiation,naïve CD4+ T cells [3],Reduced TH1 differentiation
same,TH17 differentiation,naïve CD4+ T cells [4],not suppressed
same,GM-CSF production in CNS-infiltrating CD4+ T cells,"EAE mice; inhibitor-treated EAE mice, peak of disease",reduced GM-CSF production
same,EAE severity (clinical scores),"EAE mice; wild-type mice, intraperitoneally every other day after disease onset",ameliorated EAE severity
same,immune cell infiltration in the CNS,"EAE mice; wild-type mice, intraperitoneally every other day after disease onset, day 18",reduced immune cell infiltration in the CNS
same,disruption of tyrosine phosphorylation and DNA binding of STAT5,STAT5 [5],selectively disrupt tyrosine phosphorylation and DNA binding of STAT5
